The structures appear in SMILES notation.

The target of the first test is recombinant human baculovirus-expressed cMET (Homo sapiens (Human), UniProt P08581). Description: c-MET kinase assay (HTRF KinEASE). Format: biochemical. Conditions: average of two or more determinations; read-out: c-MET IC50.
What is called IC50 is the concentration that gives 50% inhibition. For the compound `CN1CCN(c2ccc(-c3cc(Oc4ccc(NC(=O)c5cccn(-c6ccc(F)cc6)c5=O)cc4F)c4ccnn4c3)cn2)CC1` [Example 37, 1-(4-Fluoro-phenyl)-2-oxo-1,2-dihydro-pyridine-3-carboxylic acid (3-fluoro-4-{6-[6-(4-methyl-piperazin-1-yl)-pyridin-3-yl]-pyrazolo[1,5-a]pyridin-4-yloxy}-phenyl)-amide], the IC50 is below 0.01 µM.
On to `CN1CCN(c2cc(Oc3ccc(NC(=O)c4cccn(-c5ccc(F)cc5)c4=O)cc3F)c3ccnn3c2)CC1` [Example 38, 1-(4-Fluoro-phenyl)-2-oxo-1,2-dihydro-pyridine-3-carboxylic acid {3-fluoro-4-[6-(4-methyl-piperazin-1-yl)-pyrazolo[1,5-a]pyridin-4-yloxy]-phenyl}-amide], for which the 50% inhibitory concentration (IC50) is below 0.01 µM.
For `Cn1nccc1-c1cc(Oc2ccc(NC(=O)c3cccn(-c4ccc(F)cc4)c3=O)cc2F)c2ccnn2c1` [Example 41, 1-(4-Fluoro-phenyl)-2-oxo-1,2-dihydro-pyridine-3-carboxylic acid{3-fluoro-4-[6-(2-methyl-2H-pyrazol-3-yl)-pyrazolo[1,5-a]pyridine-4-yloxy]-phenyl}-amide], the 50% inhibitory concentration (IC50) was below 0.01 µM.
With `O=C(Nc1ccc(Oc2cc(C3CCOCC3)cn3nccc23)c(F)c1)c1cccn(-c2ccc(F)cc2)c1=O` [Example 47, 1-(4-Fluoro-phenyl)-2-oxo-1,2-dihydro-pyridine-3-carboxylic acid{3-fluoro-4-[6-(tetrahydro-pyran-4-yl)-pyrazolo[1,5-a]pyridin-4-yloxy]-phenyl}-amide], the 50% inhibitory concentration (IC50) was below 0.01 µM.
Take `Cc1noc(C)c1-c1cc(Oc2ccc(NC(=O)c3cccn(-c4ccc(F)cc4)c3=O)cc2F)c2ccnn2c1` [Example 48, 1-(4-Fluoro-phenyl)-2-oxo-1,2-dihydro-pyridine-3-carboxylic acid{4-[6-(3,5-dimethyl-isoxazol-4-yl)-pyrazolo[1,5-a]pyridin-4-yloxy]-3-fluoro-phenyl}-amide]: the IC50 is below 0.01 µM.
On the same count and under the same terms, the same measure for `Cc1ccc(C(=O)Nc2ccc(Oc3cc(C4CCS(=O)(=O)CC4)cn4nccc34)c(F)c2)c(=O)n1-c1ccc(F)cc1` [Example 50, 1-(4-Fluoro-phenyl)-6-methyl-2-oxo-1,2-dihydro-pyridine-3-carboxylic acid {4-[6-(1,1-dioxo-hexahydro-thiopyran-4-yl)-pyrazolo[1,5-a]pyridin-4-yloxy]-3-fluoro-phenyl}-amide]: below 0.01 µM; for `CCn1cc(C(=O)Nc2ccc(Oc3cc(-c4cnco4)cn4nccc34)c(F)c2)c(=O)n(-c2ccc(F)cc2)c1=O` [Example 52, 1-Ethyl-3-(4-fluoro-phenyl)-2,4-dioxo-1,2,3,4-tetrahydro-pyrimidine-5-carboxylic acid[3-fluoro-4-(6-oxazol-5-yl-pyrazolo[1,5-a]pyridin-4-yloxy)-phenyl]-amide]: below 0.01 µM; for `O=C(Nc1ccc(Oc2cc(-c3cnsc3)cn3nccc23)c(F)c1)c1cccn(-c2ccc(F)cc2)c1=O` [Example 53, 1-(4-Fluoro-phenyl)-2-oxo-1,2-dihydro-pyridine-3-carboxylic acid[3-fluoro-4-(6-isothiazol-4-yl-pyrazolo[1,5-a]pyridin-4-yloxy)-phenyl]-amide]: below 0.01 µM.
Regarding `O=C(Nc1ccc(Oc2cc(N3CCCCC3)cn3nccc23)c(F)c1)c1cccn(-c2ccc(F)cc2)c1=O` [Example 57, 1-(4-Fluoro-phenyl)-2-oxo-1,2-dihydro-pyridine-3-carboxylic acid[3-fluoro-4-(6-piperidin-1-yl-pyrazolo[1,5-a]pyridin-4-yloxy)-phenyl]-amide], the IC50 is below 0.01 µM.
As to `CCOCCn1cc(C(=O)Nc2ccc(Oc3cc(N4CCOCC4)cn4nccc34)c(F)c2)c(=O)n(-c2ccc(F)cc2)c1=O` [Example 58, 1-(2-Ethoxy-ethyl)-3-(4-fluoro-phenyl)-2,4-dioxo-1,2,3,4-tetrahydro-pyrimidine-5-carboxylic acid [3-fluoro-4-(6-morpholin-4-yl-pyrazolo[1,5-a]pyridin-4-yloxy)-phenyl]-amide], the IC50 lay in the range of 0.01 to 0.1 µM.
For the compound `Cc1ccc(C(=O)Nc2ccc(Oc3cc(N4CCOCC4)cn4nccc34)c(F)c2)c(=O)n1-c1ccc(F)cc1` [Example 60, 1-(4-Fluoro-phenyl)-6-methyl-2-oxo-1,2-dihydro-pyridine-3-carboxylic acid [3-fluoro-4-(6-morpholin-4-yl-pyrazolo[1,5-a]pyridin-4-yloxy)-phenyl]-amide], the IC50 was below 0.01 µM.
In the case of `CCn1cc(C(=O)Nc2ccc(Oc3cc(N4CCOCC4)cn4nccc34)c(F)c2)c(=O)n(-c2ccc(F)cc2)c1=O` [Example 61, 1-Ethyl-3-(4-fluoro-phenyl)-2,4-dioxo-1,2,3,4-tetrahydro-pyrimidine-5-carboxylic acid[3-fluoro-4-(6-morpholin-4-yl-pyrazolo[1,5-a]pyridin-4-yloxy)-phenyl]-amide], the IC50 was below 0.01 µM.
In the case of `O=C(Nc1ccc(F)cc1)C1(C(=O)Nc2ccc(Oc3cc(N4CCOCC4)cn4nccc34)c(F)c2)CC1` [Example 63, Cyclopropane-1,1-dicarboxylic acid[3-fluoro-4-(6-morpholin-4-yl-pyrazolo[1,5-a]pyridin-4-yloxy)-phenyl]-amide(4-fluoro-phenyl)-amide], the half-inhibitory concentration (IC50) was 0.01 to 0.1 µM.
Regarding `O=C(Nc1ccc(Oc2cc(N3CCC4(CC3)OCCO4)cn3nccc23)c(F)c1)c1cccn(-c2ccc(F)cc2)c1=O` [Example 67, 1-4-(Fluoro-phenyl)-2-oxo-1,2-dihydro-pyridine-3-carboxylic acid{4-[6-(1,4-dioxa-8-aza-spiro[4,5]dec-8-yl)-pyrazolo[1,5-a]pyridin-4-yloxy]-3-fluoro-phenyl}-amide], the half-inhibitory concentration (IC50) fell in the range of 0.01 to 0.1 µM.
The same measure, in the same setting: in the case of `CC(C)n1cc(C(=O)Nc2ccc(Oc3cc(N4CCC(F)(F)CC4)cn4nccc34)c(F)c2)c(=O)n(-c2ccc(F)cc2)c1=O` [Example 69, 3-(4-Fluoro-phenyl)-1-isopropyl-2,4-dioxo-1,2,3,4-tetrahydro-pyrimidine-5-carboxylic acid{4-[6-(4,4-difluoro-piperidin-1-yl)-pyrazolo[1,5-a]pyridin-4-yloxy]-3-fluoro-phenyl}-amide] it was 0.01 to 0.1 µM; in that of `CCn1cc(C(=O)Nc2ccc(Oc3cc(N4CCC(F)(F)C4)cn4nccc34)c(F)c2)c(=O)n(-c2ccc(F)cc2)c1=O` [Example 70, 1-Ethyl-3-(4-fluoro-phenyl)-2,4-dioxo-1,2,3,4-tetrahydro-pyrimidine-5-carboxylic acid{4-[6-(3,3-difluoro-pyrrolidin-1-yl)-pyrazolo[1,5-a]pyridin-4-yloxy]-3-fluoro-phenyl}-amide], 0.01 to 0.1 µM; in that of `CC(C)n1cc(C(=O)Nc2ccc(Oc3cc(N4CCC(F)(F)C4)cn4nccc34)c(F)c2)c(=O)n(-c2ccc(F)cc2)c1=O` [Example 71, 3-(4-Fluoro-phenyl)-1-isopropyl-2,4-dioxo-1,2,3,4-tetrahydro-pyrimidine-5-carboxylic acid{4-[6-(3,3-difluoro-pyrrolidin-1-yl)-pyrazolo[1,5-a]pyridin-4-yloxy]-3-fluoro-phenyl}-amide], 0.01 to 0.1 µM.
Consider `O=C(Nc1ccc(Oc2cc(N3CCS(=O)(=O)CC3)cn3nccc23)c(F)c1)c1cccn(-c2ccc(F)cc2)c1=O` [Example 72, 1-(4-Fluoro-phenyl)-2-oxo-1,2-dihydro-pyridine-3-carboxylic acid{4-[6-(1,1-dioxo-thiomorpholin-4-yl)-pyrazolo[1,5-a]pyridin-4-yloxy]-3-fluoro-phenyl}-amide], for which the concentration for half-maximal inhibition (IC50) fell in the range of 0.01 to 0.1 µM.
`CCn1cc(C(=O)Nc2ccc(Oc3cc(N4CCS(=O)(=O)CC4)cn4nccc34)c(F)c2)c(=O)n(-c2ccc(F)cc2)c1=O` [Example 73, 1-Ethyl-3-(4-fluoro-phenyl)-2,4-dioxo-1,2,3,4-tetrahydro-pyrimidine-5-carboxylic acid{4-[6-(1,1-dioxo-thiomorpholin-4-yl)-pyrazolo[1,5-a]pyridin-4-yloxy]-3-fluoro-phenyl}-amide]: the IC50 was below 0.01 µM.
Same read-out and setting: the same measure for `CC(C)n1cc(C(=O)Nc2ccc(Oc3cc(N4CCS(=O)(=O)CC4)cn4nccc34)c(F)c2)c(=O)n(-c2ccc(F)cc2)c1=O` [Example 74, 3-(4-Fluoro-phenyl)-1-isopropyl-2,4-dioxo-1,2,3,4-tetrahydro-pyrimidine-5-carboxylic acid{4-[6-(1,1-dioxo-thiomorpholin-4-yl)-pyrazolo[1,5-a]pyridin-4-yloxy]-3-fluoro-phenyl}-amide]: below 0.01 µM.
`O=C(Nc1ccc(Oc2cc(N3CCCC3)cn3nccc23)c(F)c1)c1cccn(-c2ccc(F)cc2)c1=O` [Example 75, 1-(4-Fluoro-phenyl)-2-oxo-1,2-dihydro-pyridine-3-carboxylic acid[3-fluoro-4-(6-pyrrolidin-1-yl-pyrazolo[1,5-a]pyridin-4-yloxy)-phenyl]-amide]: the IC50 is below 0.01 µM.
The same measure, in the same setting: in the case of `O=C(Nc1ccc(Oc2cc(N3CCCC3=O)cn3nccc23)c(F)c1)c1cccn(-c2ccc(F)cc2)c1=O` [Example 76, 1-(4-Fluoro-phenyl)-2-oxo-1,2-dihydro-pyridine-3-carboxylic acid{3-fluoro-4-[6-(2-oxo-pyrrolidin-1-yl)-pyrazolo[1,5-a]pyridin-4-yloxy]-phenyl}-amide] it was below 0.01 µM; in that of `CC(C)n1cc(C(=O)Nc2ccc(Oc3cc(N4CCCC4=O)cn4nccc34)c(F)c2)c(=O)n(-c2ccc(F)cc2)c1=O` [Example 78, 3-(4-Fluoro-phenyl)-1-isopropyl-2,4-dioxo-1,2,3,4-tetrahydro-pyrimidine-5-carboxylic acid {3-fluoro-4-[6-(2-oxo-pyrrolidin-1-yl)-pyrazolo[1,5-a]pyridin-4-yloxy]-phenyl}-amide], below 0.01 µM.
On to `O=C(Nc1ccc(Oc2cc(Nc3ccccc3)cn3nccc23)c(F)c1)c1cccn(-c2ccc(F)cc2)c1=O` [Example 80, 1-(4-Fluoro-phenyl)-2-oxo-1,2-dihydro-pyridine-3-carboxylic acid[3-fluoro-4-(6-phenylamino-pyrazolo[1,5-a]pyridin-4-yloxy)-phenyl]-amide], for which the IC50 was below 0.01 µM.

Still in this test, the particulars now being: read-out: c-MET IC50.
As for `CCOc1ccn(-c2ccc(F)cc2)c(=O)c1C(=O)Nc1ccc(Oc2cc(N3CCOCC3)cn3nccc23)c(F)c1` [Example 66, 4-Ethoxy-1-(4-fluoro-phenyl)-2-oxo-1,2-dihydro-pyridine-3-carboxylic acid [3-fluoro-4-(6-morpholin-4-yl-pyrazolo[1,5-a]pyridin-4-yloxy)-phenyl]-amide], the concentration for half-maximal inhibition (IC50) was below 0.01 µM.

For the origin of these results see US9914731B2, “Pyrazolo[1,5-a]pyridine derivatives and methods of their use” (Ignyta, Inc., priority 2013, dated 2018).
